Measured values published in patent US20240124389A1, “COMPOUND OR SALT THEREOF, LIPID PARTICLES, AND PHARMACEUTICAL COMPOSITION” (FUJIFILM Corporation, priority 2021, published 2024).

Legend:
[1] = system: human EPO; test: Measurement of EPO enzyme activity (EPO protein in blood plasma of mice after intravenous administration of EPO mRNA lipid particles); assay type: in vivo; settings: C57BL/6J mice, tail-vein i.v., mRNA 0.1 mg/kg, plasma 20 to 24 hours; aminolipid 50 / DOPE 10 / cholesterol 38.5 / DMG-PEG2000 1.5 mol %; lipid/nucleic acid 64 wt/wt
In short: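 C57BL/6J mice received EPO mRNA (5moU) in lipid particles (ionizable lipid, DSPC/DOPE/DOPC, cholesterol, DMG-PEG2000) by tail-vein injection at 0.1 mg/kg mRNA. Plasma taken 20–24 h later; human EPO measured by ELISA and expressed relative to a comparative formulation set as 1.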

[2] = system: EPO mRNA; test: mRNA encapsulation rate of EPO mRNA-encapsulating lipid particles; assay type: physicochemical; settings: aminolipid 50 / DOPE 10 / cholesterol 38.5 / DMG-PEG2000 1.5 mol %, lipid/nucleic acid 64 wt/wt
In short: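 Lipid particles made by mixing lipids in ethanol (20 mmol/L total) with EPO mRNA in 50 mmol/L citrate pH 4 (lipid:mRNA weight ratio about 16:1–64:1), then dialysed against 10% sucrose. Total mRNA measured after ethanol precipitation; outer-phase mRNA by RiboGreen fluorescence (ex 485/em 535 nm). Encapsulation (%) = (total − outer)/total × 100.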

[3] = Particle size of PTEN ASO-LNP; assay type: physicochemical; settings: PTEN ASO lipid particles; aminolipid 50 / DSPC 20 / cholesterol 28.5 / monostearyl PEG 1.5 mol %; lipid/nucleic acid 11.8 wt/wt
Method: The first lipid, phospholipid, cholesterol, and polyethylene glycol lipid (PEG lipid) shown in Table 3 were dissolved in ethanol at the molar ratio shown in Table 3 such that the total lipid concentration was 20 mmol/L to obtain the oil phase.
As the neutral lipid, 1,2-Distearoyl-sn-glycero-3-phosphocholine (DSPC, product name: COATSOME MC-8080, NOF corporation) was used. As the cholesterol, cholesterol (product name: Cholesterol HP; Nippon Seika Co., Ltd.) was used. As the PEG lipid, monostearyl PEG (product name: Polyethylene Glycol Monostearate (4E.O.), FUJIFILM Wako Pure Chemical Corporation) was used.
5 mg of PTEN ASO was dissolved in 1 mL of sterile water and diluted with a 10 mmol/L acetate buffer having a pH of 4 such that the nucleic acid concentration was 54.6 μmol/L, to obtain a water phase. Then the water phase and the oil phase were mixed together with a micromixer (see JP5288254B) using a syringe pump such that the volume ratio of water phase:oil phase was 3:1, and the mixed solution was two-fold diluted with a phosphate buffered physiological saline (PBS), thereby obtaining a dispersion of nucleic acid lipid particles.
The particle size and polydispersion index of the lipid particles were measured by 10-fold diluting the dispersion liquid of lipid particle with phosphate buffered physiological saline (PBS) using Zeta-potential & Particle size Analyzer ELS-Z2 (Otsuka Electronics Co., Ltd.).

SMILES | Relative amount of EPO protein (with respect to Comparative Example 1) [1] | Nucleic acid encapsulation rate [2] [%] | Particle size [3] [nm]
CCCCCCC(CCCC)COC(=O)CCCC(CCCCCC)OC(=O)OCCN(CCOC(=O)OC(CCCCCC)CCCC(=O)OCC(CCCC)CCCCCC)CCN(CC)CC (stereo not drawn) [Example 8, Bis(2-butyloctyl) 11-(2-(diethylamino)ethyl)-5,17-dihexyl-7,15-dioxo-6,8,14,16-tetraoxa-11-azahenicosanedioate] | 2.27 | 98.0 | 87.7
CCCCCCCOC(=O)CCCC(CCCC(=O)OCCCCCCC)OC(=O)OCCN(CCOC(=O)OC(CCCC(=O)OCCCCCC)CCCC(=O)OCCCCCC)CCN(CC)CC [Example 37, 1-Heptyl 21-hexyl 11-(2-(diethylamino)ethyl)-5-(4-(heptyloxy)-4-oxobutyl)-17-(4-(hexyloxy)-4-oxobutyl)-7,15-d ioxo-6,8,14,16-tetraoxa-11-azahenicosanedioate] | 5.18 | 99.0 | 58.6
CCCCCC(CCCCC)COC(=O)CCCC(CCC)OC(=O)OCCN(CCOC(=O)OC(CCC)CCCC(=O)OCC(CCCCC)CCCCC)CCN(CC)CC (stereo not drawn) [Example 21, Bis(2-pentylheptyl) 11-(2-(diethylamino)ethyl)-7,15-dioxo-5,17-dipropyl-6,8,14,16-tetraoxa-11-azahenicosanedioate] | 4.66 | 99.9 | 81.5
CCCCCCCOC(=O)CCCC(CCCC(=O)OCCCCCCC)OC(=O)OCCN(CCOC(=O)OC(CCCC(=O)OCCCCCCC)CCCC(=O)OCCCCCCC)CCN(CC)CC [Example 29, diheptyl 11-(2-(diethylamino)ethyl)-5,17-bis(4-(heptyloxy)-4-oxobutyl)-7,15-dioxo-6,8,14,16-tetraoxa-11-azahenicosanedioate] | 9.90 | 97.1 | 104.3
CCCCCCC(CCCC(=O)OCC(CCCCC)CCCCC)OC(=O)OCCN(CCCN(CC)CC)CCOC(=O)OC(CCCCCC)CCCC(=O)OCC(CCCCC)CCCCC (stereo not drawn) [Example 13, Bis(2-pentylheptyl) 11-(3-(diethylamino)propyl)-5,17-dihexyl-7,15-dioxo-6,8,14,16-tetraoxa-11-azahenicosanedio ate] | 5.09 | 98.5 | 60.4
